This is an account of results in patent publication US20030109570A1 (priority 2002, published 2003).

One test concerns the target T1, human PPARα receptor (Homo sapiens, UniProt Q07869).
T1 construct: and; expressed in transfected cells; host or cells: CV-1 cells, pSG5-based Gal4-PPAR expression vector
T1 sequence (Q07869 167-468): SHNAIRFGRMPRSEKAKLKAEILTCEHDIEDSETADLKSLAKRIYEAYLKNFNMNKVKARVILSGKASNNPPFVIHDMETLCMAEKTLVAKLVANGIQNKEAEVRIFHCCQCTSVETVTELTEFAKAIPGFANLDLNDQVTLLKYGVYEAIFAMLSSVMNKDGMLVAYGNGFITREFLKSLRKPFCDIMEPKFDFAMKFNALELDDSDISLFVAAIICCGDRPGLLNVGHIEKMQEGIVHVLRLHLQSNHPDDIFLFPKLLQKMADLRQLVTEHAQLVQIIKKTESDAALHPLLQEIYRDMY
Briefly: Luciferase assay using human PPARα receptor (Gal4 chimera, CV-1 cells). The format is cell-based. As to conditions: 24 h, luciferase activity of Wy-14.643 at 10 μM = 100, read-out: PPARα agonist activity, Relative activity. As to the method:
(§1) 1) Materials for a Luciferase Assay Using Human PPARα and γ
(§2) The entire procedure was conducted using a usual yeast one- or two-hybrid system according to a basic genetic engineering process.
(§3) pGL2-UAS5-TK-luc was prepared as a reporter plasmid having a response sequence of the Gal4 protein as an yeast basic transcription factor and a luciferase gene (luc) under the control by an enhancer sequence with five times repeats of UAS and the thymidine kinase (TK) promoter promoter.
(§4) A vector expressing a chimera receptor in which a ligand binding region in an intranuclear receptor human PPARα or γ receptor was fused to the […] terminus in the DNA binding region of the yeast Gal4 protein was prepared as follows. Specifically, using pSG5 (trade name, STRATAGENE, Catalogue No.216201) as a basic expression vector, the structural gene was replaced with that of a chimera receptor.
(§5) A DNA encoding the ligand binding region in human PPARα or γ receptor was inserted downstream of the DNA binding region in the Gal4 protein, i.e., the DNA encoding the 1st to 147th amino acid sequence such that the frames were aligned and it was inserted downstream of the promoter-enhancer region in pSG5 (trade name). For localizing the expressed chimera receptor in the nucleus, the DNA sequence was constructed such that a nuclear transition signal derived from SV-40T antigen, Ala Pro Lys Lys Lys Arg Lys Val Gly (SEQ ID NO. 4) was present at the amino terminus of the ligand binding region in the human PPARα or γ receptor.
(§6) As the structural gene segment for a ligand binding region in the human PPARα or γ receptor, a DNA was used which encoded:
human PPARα ligand binding region: Ser^167-Tyr^468; and
(§7) 2) Luciferase Assay Using the Human PPARα or γ Receptor
(§8) CV-1 cells used as a host cell were cultured as usual. Specifically, a fetal calf serum (Intergen, Catalogue No.1020-90) was added to the Dulbecco modified eagle medium (DMEM) to the final concentration of 10%, and penicillin G and streptomycin sulfate were then added to the final concentrations of 50 U/mL and 50 μg/mL, respectively. In the medium, the cells were cultured at 37° C. under 5% carbon dioxide.
(§9) The day before transfection, the cells were inoculated in a 24 well plate at 1.5×10^5 cells/well in advance. LipofectAMINE (trade name, GIBCOBRL, Catalogue No.26300-61) was used for transfection. Specifically, for each well, in 40 μL of a serum-free medium Opti-MEM (trade name, GIBCOBRL, Catalogue No.31985-070) were well mixed 100 ng of a reporter plasmid, 12.5 ng of Gal4-PPAR expression vector, 200 ng of pRL-TK (trade name) as an internal control, 287.5 ng of pGEM-3Zf(+) (trade name, PROMEGA, Catalogue No. P2271) as a carrier DNA and 2.6 μL of LipofectAMINE (trade name, GIBCOBRL, Catalogue No.26300-61). To the mixture was added 170.2 μL of Opti-MEM (trade name). After washing with PBS (Phosphate Buffered Saline) and Opti-MEM (trade name), the mixture was added to the above cells. After culturing at 37° C. for 16 hours, the medium was replaced with DMEM-10% charcoal-[…] treated fetal calf serum (trade name, HyClone, Catalogue No. SH30068.03) containing a compound of this invention. After culturing at 37° C. for 24 hours, the cells were lysed and determined for its luciferase activity as usual.

The next test deals with T2, human PPARγ receptor (Homo sapiens, UniProt P37231).
T2 construct: expressed in transfected cells; host or cells: CV-1 cells, pSG5-based Gal4-PPAR expression vector
T2 sequence (P37231 204-505): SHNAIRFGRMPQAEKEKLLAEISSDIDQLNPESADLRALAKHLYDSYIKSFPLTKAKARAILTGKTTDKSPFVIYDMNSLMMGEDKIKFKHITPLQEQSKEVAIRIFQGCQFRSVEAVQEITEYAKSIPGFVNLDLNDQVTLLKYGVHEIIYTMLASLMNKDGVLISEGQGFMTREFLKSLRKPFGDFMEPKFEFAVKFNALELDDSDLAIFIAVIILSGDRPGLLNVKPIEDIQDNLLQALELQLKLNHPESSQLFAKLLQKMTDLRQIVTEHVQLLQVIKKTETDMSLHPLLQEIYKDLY
Briefly: Luciferase assay using human PPARγ receptor (Gal4 chimera, CV-1 cells). The format is cell-based. To be noted: 24 h, luciferase activity of Pioglitazone at 1 μM = 100, read-out: PPARγ agonist activity, Relative activity. The procedure: as §1, §2, §3, §4, §5, §6
human PPARγ ligand binding region: Ser^176-Tyr^478
which correspond to Ser^204-Tyr^506 in the human PPARγ 1 receptor and PPARγ 2 receptor and thus have the same base sequence, from structural comparison for human PPAR receptors described in R. Mukherjee et al., J. Steroid Biochem. Molec. Biol., Vol. 51, p.157 (1994); M. E. Green et al. (Gene Expression., Vol.4, p.281 (1995). For monitoring an effect on basic transcription, was also prepared an expression vector having encoding only the DNA binding region of the Gal4 protein lacking the PPAR ligand binding region, the 1st to 147th amino acid sequence and a nuclear transition signal for SV-40T-antigen.
as §7, §8, §9

The next test relates to KKAy mouse. Briefly: Hypoglycemic and hypolipidemic effects using a diabetic model mouse (KKAy mouse). The format is in vivo. As to conditions: KKAy mice, 30 mg/kg orally once daily for four days, fifth day vs first day; for Reduction rate of a free fatty acid level / Reduction rate of a triglyceride level: plasma. As to the method: Type II diabetic mice “KK-Ay/Ta Jci” (male, Nippon Clare, 10 weeks, five per a group) in each cage were used. In the morning of the initial day of the study, blood was collected from an orbital vein. A glucose level was determined using a new blood sugar test (Boehringer Mannheim) for a centrifuge supernatant after deproteination of the blood with perchloric acid. The blood was centrifuged to prepare a plasma. Then, a triglyceride and a free fatty acid levels in the plasma were determined using Triglyceride E-Test Wako and NEFA-C Test Wako (Wako Pure Chemicals, Inc.), respectively. […] On the fifth day of the study, a blood was collected for determination of a blood glucose level, a triglyceride level and a free fatty acid level. A group to which only 0.5% aqueous CMC solution was administered was used as a control group while a group to which pioglytazone was administered was used as a positive control. A reduction rate for a parameter in each group was calculated using the following equation.

As to `COc1cc2sc(CC(C)(Oc3ccc(C(C)C)cc3)C(=O)O)cc2c(Cl)c1OC` (stereo not drawn) [Example 4, 3-(4-chloro-5,6-dimethoxybenzothiophen-2-yl)-2-(4-isopropylphenoxy)-2-methylpropanoic Acid], the Emax at 0.1 µM was 0.3% on human PPARα receptor (0.1 μM) and 8% on human PPARγ receptor (0.1 μM). The Emax at 1 µM turned out to be 2.9% at human PPARα receptor (1 μM) and 68% on human PPARγ receptor (1 μM). Also, the values for the Emax at 10 µM at human PPARα receptor (10 μM) and on human PPARγ receptor (10 μM) were 249% and 69.9%, respectively. The “Reduction rate of a blood glucose level” value in the test on KKAy mouse was 58%. The “Reduction rate of a free fatty acid level” value in the test on KKAy mouse is 69%. Moreover, in the test with KKAy mouse, the “Reduction rate of a triglyceride level” value worked out at 85%.
Turning to `CCc1ccc(CCOc2ccc(CC3SC(=O)NC3=O)cc2)nc1` (stereo not drawn) [Pioglytazone, Pioglitazone, reference compound], in the test on KKAy mouse, the “Reduction rate of a blood glucose level” value was 28%, the “Reduction rate of a free fatty acid level” value amounted to 49% and the “Reduction rate of a triglyceride level” value came out at 60%.
